# Results from patent US20110015135A1, “Antitumoral Treatments” (Pharma Mar S.A., priority 2008, published 2011).
# What was measured:
# A549 cell line = experiment: cells; format: cell-based, human; details: 72 hours of drug exposure
# Method: (§1) a. […] Experiments were performed in triplicate.
# DV90 cell line = experiment: cells; format: cell-based, human
# Method: as §1
# HOP62 cell line = experiment: cells; format: cell-based, human
# Method: as §1
# MCF7 cell line = experiment: cells
# Method: (§2) Experiments were performed in triplicate.
# (§3) a. In the first set of assays, ICso values were determined for each drug after 72 hours of drug exposure in each of the tumor cell lines.
# MDA-MB-231 cell line = experiment: cells
# Method: as §2, §3
# MDA-MB-435 cell line = experiment: cells
# Method: as §2, §3
# DLD1 cell line = experiment: cells
# Method: as §2
# HT29 cell line = experiment: cells
# Method: as §2
# mouse leukemia (P388) = details: reported in EP 610.078; cited from earlier work
# [1] = tested on: non-small cell lung (A549); details: reported in EP 610.078; cited from earlier work
# colon (HT-29) = details: reported in EP 610.078; cited from earlier work
# [2] = MCF7, 72 hours of drug exposure
# [3] = MDA-MB-231, 72 hours of drug exposure
# [4] = MDA-MB-435, 72 hours of drug exposure
# [5] = DLD1, 72 hours of drug exposure
# [6] = HT29, 72 hours of drug exposure
Molecule,IC50 (A549 cell line),IC50 (DV90 cell line; 72 hours of drug exposure),IC50 (HOP62 cell line; 72 hours of drug exposure),IC50 (MCF7 cell line; [2]),IC50 (MDA-MB-231 cell line; [3]),IC50 (MDA-MB-435 cell line; [4]),IC50 (DLD1 cell line; [5]),IC50 (HT29 cell line; [6]),IC50 (A549 cell line; Homo sapiens),"IC50 (DV90 cell line; Homo sapiens, DV-90, 72 hours of drug exposure)","IC50 (HOP62 cell line; Homo sapiens, HOP-62, 72 hours of drug exposure)","IC50 (MCF7 cell line; Homo sapiens, MCF7, 72 h)","IC50 (MDA-MB-231 cell line; Homo sapiens, MDA-MB-231, 72 h)","IC50 (MDA-MB-435 cell line; Homo sapiens, MDA-MB-435, 72 h)","IC50 (DLD1 cell line; Homo sapiens, DLD-1, 72 h)","IC50 (HT29 cell line; Homo sapiens, HT-29, 72 h)",in vitro activity (mouse leukemia (P388)),in vitro activity [1],in vitro activity (colon (HT-29))
Nc1ccn([C@@H]2O[C@H](CO)[C@@H](O)C2(F)F)c(=O)n1 [Gemcitabine],4 nM,400 nM,750 nM,900 nM,1000 nM,40 nM,2000 nM,550 nM,,,,,,,,,,,
CC(=O)O[C@H]1C(=O)[C@@]2(C)[C@H]([C@H](OC(=O)c3ccccc3)[C@]3(O)C[C@H](OC(=O)[C@H](O)[C@@H](NC(=O)c4ccccc4)c4ccccc4)C(C)=C1C3(C)C)[C@]1(OC(C)=O)CO[C@@H]1C[C@@H]2O [Paclitaxel],,,,,,,,,7 nM,30 nM,40 nM,7.5 nM,25 nM,25 nM,40 nM,10 nM,,,
N.N.[Cl][Pt][Cl] [Cisplatin],8250 nM,16500 nM,8250 nM,16500 nM,8250 nM,2640 nM,24800 nM,6600 nM,,,,,,,,,,,
Kahalalide F,,,,,,,,,,,,,,,,,micromolar activity,micromolar activity,micromolar activity
"C/C=C1\NC(=O)[C@H](Cc2ccccc2)NC(=O)[C@@H](C(C)C)NC(=O)[C@@H]([C@@H](C)CC)NC(=O)[C@H](NC(=O)[C@H](NC(=O)[C@H](CCCN)NC(=O)[C@H]2CCCN2C(=O)[C@H](NC(=O)[C@@H](NC(=O)[C@@H](NC(=O)[C@H](NC(=O)CC[C@@H](C)CC)C(C)C)[C@@H](C)O)C(C)C)C(C)C)[C@@H](C)CC)[C@@H](C)OC(=O)[C@H](C(C)C)NC1=O [PM02734, (4S)-MeHex-D-Val-L-Thr-L-Val-D-Val-D-Pro-L-Orn-D-allo-Ile-cyclo(D-allo-Thr-D-allo-Ile-D-Val-L-Phe-Z-Dhb-L-Val)]",200 nM,300 nM,4000 nM,600 nM,6500 nM,500 nM,350 nM,550 nM,,,,,,,,,,,
